Test results from patent US10144690B2, “1,2-diphenylethylene glycol compounds for combating aging of the skin, and cosmetic use thereof” (L'OREAL, priority 2014, dated 2018).

Test system: phospho-AMPK (Thr-172) (p-AMPK)
Experiment: p-AMPK expression by Western blotting in normal human epidermal keratinocytes (p-AMPK/GAPDH ratio relative to control)
Type: cell-based
Details: 12 hours incubation
Description: Normal human epidermal keratinocytes are seeded at 180 000 cells per well and cultured in SFM culture medium (supplier Gibco) supplemented with 0.25 ng/ml EGF, 25 μg/ml of pituitary extract and 25 μg/ml gentamicin, up to confluence, and incubated in a humid oven at 37° C. and 5% CO2. The culture medium was then replaced with test medium (SFM (Gibco) supplemented with 25 μg/ml gentamicin) containing or not containing (control) the test compounds, the combinations or the reference (AICAR—(5-amino-4-imidazolecarboxamide riboside) at 500 μM). The cells were then incubated for 12 hours.
The level of expression of p-AMPK was analyzed by Western blotting.
At the end of the incubation, the proteins were extracted and quantified and then separated by electrophoresis on 10% polyacrylamide gel and then transferred onto a nitrocellulose membrane.
Between each successive revelation, the antibodies were detached using a “stripping” buffer. The images were acquired with a Fuji LAS 3000 chemiluminescence scanner (Fujifilm) and the densitometric analyses were performed using the Multigauge software (Fujifilm).
An increase in the phosphorylated form of AMPK (active form of the enzyme) relative to the control is evaluated in this test.
Expressed in the form of the p-AMPK/GAPDH ratio relative to the control (100%): […]

SMILES: COc1ccc([C@@H](O)[C@H](O)c2ccc(OC)cc2)cc1 [Compound 1]
- p-AMPK/GAPDH ratio relative to the control (100%) (test compound 1 μM): 133%
- p-AMPK/GAPDH ratio relative to the control (100%) (test compound 10 μM): 171%
- p-AMPK/GAPDH ratio relative to the control (100%) (test compound 100 μM): 198%

SMILES: Oc1ccc(C(O)C(O)c2cc(O)cc(O)c2)cc1 (stereo not drawn) [Compound 4]
- p-AMPK/GAPDH ratio relative to the control (100%) (test compound 1 μM): 132%
- p-AMPK/GAPDH ratio relative to the control (100%) (test compound 10 μM): 140%
- p-AMPK/GAPDH ratio relative to the control (100%) (test compound 100 μM): 159%

SMILES: COc1cc(C(O)C(O)c2ccc(O)c(OC)c2)ccc1O (stereo not drawn) [Compound 3]
- p-AMPK/GAPDH ratio relative to the control (100%) (test compound 1 μM): 112%
- p-AMPK/GAPDH ratio relative to the control (100%) (test compound 10 μM): 147%
- p-AMPK/GAPDH ratio relative to the control (100%) (test compound 100 μM): 158%

SMILES: COc1ccc(C(O)[C@H](O)c2ccc(OC)cc2)cc1 (stereo partly drawn) [Compound 2]
- p-AMPK/GAPDH ratio relative to the control (100%) (test compound 1 μM): 94%
- p-AMPK/GAPDH ratio relative to the control (100%) (test compound 10 μM): 134%
- p-AMPK/GAPDH ratio relative to the control (100%) (test compound 100 μM): 149%
